Data published in ChEMBL document CHEMBL5131561, “Modified Benzofuran-carboxamide Compounds as Glucosylceramide Synthase Inhibitors for Treating Diseases” (ACS Med Chem Lett, 2022).

Target: T1, Ceramide glucosyltransferase (Homo sapiens, UniProt Q16739)
T1 sequence (Q16739 whole entry): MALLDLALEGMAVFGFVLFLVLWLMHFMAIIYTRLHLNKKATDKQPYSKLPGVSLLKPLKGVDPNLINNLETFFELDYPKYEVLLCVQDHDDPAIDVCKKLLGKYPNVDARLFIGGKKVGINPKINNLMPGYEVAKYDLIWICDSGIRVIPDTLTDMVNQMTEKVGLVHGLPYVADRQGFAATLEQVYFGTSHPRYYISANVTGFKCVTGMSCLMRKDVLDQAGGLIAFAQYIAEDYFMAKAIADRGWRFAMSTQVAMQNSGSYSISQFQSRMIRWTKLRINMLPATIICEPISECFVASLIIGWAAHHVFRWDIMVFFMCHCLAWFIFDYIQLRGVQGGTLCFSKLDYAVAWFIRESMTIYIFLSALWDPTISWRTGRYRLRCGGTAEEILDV
Test: Inhibition of GCS in human A-375 cells using C6-ceramide and UDP-glucose as substrate preincubated for 30 mins followed by substrate addition measured after 20 hrs by UDP-Glo glucosylceramide synthase based luminometer analysis
Assay type: cell-based

EC50: 0.047 nM
Structure (SMILES): N#Cc1ccc(Cl)c(-c2cccc3cc(C(=O)N[C@H]4CC[C@@H](O)C4)oc23)c1
